Reference: ChEMBL document CHEMBL1201862, “PubChem BioAssay data set” (2004)
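How tested: cells in 96-well plates exposed to compound for 48 hours at five concentrations. The concentration for 50% growth inhibition is given as GI50.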 Active and inactive are the calls of the source. Rule as the data show it: active = GI50 up to about 1.1 µM and inactive = higher.

Columns and labels:
Assay in all cases: NCI-60 cell line screen, 48 h
DLD-1 = test system: DLD-1
KM-20L2 = test system: KM-20L2
RXF 631 = test system: RXF 631
SNB-78 = test system: SNB-78
HOP-18 = test system: HOP-18
BT-549 = test system: BT-549
Hs-578T = test system: Hs-578T
MDA-MB-231 = test system: MDA-MB-231
MDA-N = test system: MDA-N

Measured: GI50

O=[N+]([O-])c1nc(-c2ccccn2)[nH]c1[N+](=O)[O-]
inactive: DLD-1 70.5 µM | KM-20L2 39.6 µM | RXF 631 57.8 µM | SNB-78 > 100 µM

O=S(=O)(/C=C/c1ccc(F)cc1)Cc1ccc(CS(=O)(=O)/C=C/c2ccc(F)cc2)cc1
inactive: DLD-1 > 100 µM | HOP-18 > 100 µM | KM-20L2 > 100 µM | RXF 631 > 100 µM | SNB-78 > 100 µM

COc1ccccc1NC(=O)C1=C(C)NC(C)=C(C(=O)Nc2ccccc2OC)C1c1ccccc1OC
inactive: DLD-1 > 100 µM | HOP-18 > 100 µM | KM-20L2 > 100 µM | RXF 631 > 100 µM | SNB-78 > 100 µM

O=C(CC(=O)N1N=C(c2ccccc2)C(/N=N/c2ccc(Cl)cc2)C1=O)Nc1ccccc1Cl (stereo not given)
inactive: DLD-1 30.3 µM | HOP-18 24.2 µM | KM-20L2 80.9 µM | RXF 631 40.6 µM | SNB-78 64 µM

O=C(Nc1ccn(CCO)c(=O)n1)c1ccccc1
inactive: DLD-1 > 100 µM | HOP-18 > 100 µM | KM-20L2 > 100 µM | RXF 631 > 100 µM | SNB-78 > 100 µM

Cc1cc(Cl)cc2c1NC(=O)C2(O)CC(=O)c1ccco1 (stereo not given)
inactive: BT-549 > 100 µM | DLD-1 > 100 µM | HOP-18 4.33 µM | Hs-578T 88.9 µM | MDA-MB-231 35.3 µM | MDA-N 10.4 µM | RXF 631 > 100 µM | SNB-78 > 100 µM

CCC1CCc2c(c(=O)oc3c2cc(OC)c2cccc(OC)c23)C1 (stereo not given)
inactive: DLD-1 48.3 µM | HOP-18 > 100 µM | KM-20L2 > 100 µM | SNB-78 > 100 µM

CCOC(=O)c1ncn2c1[nH]c(=S)c1ccccc12
inactive: DLD-1 > 100 µM | HOP-18 > 100 µM | KM-20L2 > 100 µM | RXF 631 > 100 µM

COc1ccc2nc3cc(Cl)ccc3c(Sc3ccc(NC(C)=O)cc3)c2c1
inactive: DLD-1 6.89 µM | HOP-18 > 29.9 µM | KM-20L2 > 21.3 µM | RXF 631 8.85 µM | SNB-78 5.6 µM

[N-]=[N+]=Nc1cc(=O)oc2ccccc12
inactive: DLD-1 > 100 µM | HOP-18 > 100 µM

CC12CCC3=C(CSC4=C3CSc3ccccc34)C1=CCCC2=O (stereo not given)
inactive: DLD-1 29.4 µM | HOP-18 39.3 µM | KM-20L2 51.6 µM

CN1C(=O)CNS1(=O)=O
inactive: DLD-1 > 100 µM | RXF 631 > 100 µM | SNB-78 > 100 µM

O=C(O)c1ccc(NC(=O)C2C(=O)C(=O)N(c3ccc(C(=O)O)cc3)C2=O)cc1 (stereo not given)
inactive: DLD-1 > 100 µM | KM-20L2 > 100 µM | SNB-78 > 100 µM

CCCCCCCCC/C=C1\CCC(CN(C)C)C1=O (stereo not given)
inactive: DLD-1 2.06 µM | KM-20L2 2.18 µM | RXF 631 2.07 µM | SNB-78 2.37 µM

O=C(O)C(CS)NCc1c2ccccc2nc2ccccc12 (stereo not given)
inactive: DLD-1 24.4 µM | KM-20L2 41.6 µM | RXF 631 22.3 µM

COc1cc2c(oc(=O)c3cc4ccoc4c(OC)c32)c2cccc(O)c12
inactive: DLD-1 > 100 µM | HOP-18 > 100 µM | KM-20L2 > 100 µM | SNB-78 > 100 µM

COC(=O)C(C(=O)C(N)=O)c1csc(-n2nc(-c3ccccc3)cc2-c2ccccc2)n1 (stereo not given)
inactive: DLD-1 > 31.6 µM | HOP-18 15.6 µM | KM-20L2 27.4 µM | RXF 631 > 10 µM | SNB-78 > 31.6 µM

O=C1c2ccccc2C(=O)c2[nH]c(Cc3ccccc3F)nc21
inactive: DLD-1 16.1 µM | HOP-18 93.8 µM | KM-20L2 33.9 µM

O=C(CC(=O)C1CCOC1=O)C(=O)Nc1cccc(Cl)c1 (stereo not given)
inactive: DLD-1 > 100 µM | HOP-18 > 100 µM | KM-20L2 > 100 µM | RXF 631 > 100 µM | SNB-78 > 100 µM

COc1ccc2ccccc2c1C1=NC(C)(C)CO1
inactive: DLD-1 > 100 µM | HOP-18 > 100 µM | KM-20L2 > 100 µM | RXF 631 > 100 µM

Cc1ccc(-c2nc3ccccc3c(=O)n2NC2OC(CO)C(O)C(O)C2O)cc1 (stereo not given)
inactive: HOP-18 > 100 µM | KM-20L2 > 100 µM | RXF 631 > 100 µM | SNB-78 > 100 µM

COC(=O)C1CCc2c(OC)ccc(OC)c2C1=O (stereo not given)
inactive: DLD-1 > 100 µM | HOP-18 > 100 µM | KM-20L2 > 100 µM | SNB-78 > 100 µM

[N-]=[N+]=Nc1c(Br)c(=O)[nH]c(=O)n1COCCO
inactive: DLD-1 > 100 µM | HOP-18 > 100 µM | RXF 631 > 100 µM | SNB-78 > 100 µM

Nc1nc(=O)[nH]c2c1cnn2COCCO
inactive: DLD-1 > 100 µM | HOP-18 > 100 µM | KM-20L2 2.33 µM | SNB-78 21.5 µM

NC(CCC(=O)NC(CSSCCCCS(=O)O)C(=O)NCC(=O)O)C(=O)O (stereo not given)
inactive: DLD-1 > 100 µM | HOP-18 > 100 µM | KM-20L2 > 100 µM | RXF 631 > 100 µM | SNB-78 > 100 µM
